{"source": "patent US20140079836A1", "about": "“METHODS AND COMPOSITIONS FOR ALTERING HEALTH, WELLBEING, AND LIFESPAN” (LifeSpan Extension, LLC, priority 2008, published 2014)", "tested_on": "entire human genome (gene expression profile)", "assay": "Agilent whole human genome array, skin fibroblasts AG07999, antioxidant with or without UV", "format": "cell-based", "method": "Cell cultures: A human skin fibroblast cell culture was obtained through the Coriell Cell Repository from the National Institute on Aging Cell Repository. […] Culture media: Cells were grown in Minimal Essential Medium supplemented with 10% fetal bovine serum, 2 mM L-glutamine, 2 mM Glutamax I. […] All cultures were incubated at 37° C. with 5% CO2 in a humidified chamber. […] On Day 5 after 24 hours of exposure to test conditions, the cells were isolated and the RNA isolated using the RT^2q PCR-grade RNA isolation kit (Superarray Bioscience Corporation). […] Analysis of Agilent Whole Human Genome Arrays: RNA taken from both samples was sent to Cogenics, Inc. Morrisville, N.C. Cogenics, Inc. is a leading, state-of-the-art, microarray service provider that facilitates and accelerates transcriptome profiling and gene discovery processes for industrial and academic researchers. Cogenics' procedure for processing samples is as follows: RNA samples are received and analyzed by Cogenics, Inc. using rigorous standardized procedures that are designed to ensure quality and chain of custody. Each sample undergoes a thorough quality analysis using an Agilent Bioanalyzer microfluidics device, and is precisely quantified using a Nanodrop-1000 spectro-photometer. When the Agilent Oligonucleotide Microarray Platform is utilized, samples are fluorescently labeled using the Agilent Low-Input Linear Amplification Kit. Upon completion of this process, the labeled cRNA products are assessed using the same processes described above. These labeled samples are then fragmented and hybridized to oligonucleotide microarrays. The microarrays are washed and then scanned using an Agilent DNA Microarray Scanner with Sure Scan technology. Data is extracted from the images produced by the scanner using Agilent's Feature Extraction software. At this point, the scanned image is visually inspected for defects, and the extracted data is statistically analyzed to ensure quality of the assay. Extracted data and images can be loaded into Rosetta Resolver Gene Expression Data Analysis System for in-depth analysis, both from a quality standpoint, as well as to develop biological understanding. […] A table was generated and provided as a tab-delimited text file. This file will contain the log ratio, fold-change, log ratio p-value, etc. for every transcript measured by the microarray. Using Rosetta Resolver, a single ratio comparison was compiled based on the results of the two fluorophore reversal hybridization performed in the context of this project. The ratios were calculated such that the Tx sample was in the numerator and the UnTx sample was in the denominator. A table was generated, saved as tab-delimited text files, and is provided on the DVD that accompanied this report in the “Objective—1” subdirectory or the “Data_Analysis” directory. These files contain the log ratio, fold-change, log ratio p-value, etc. for every transcript present on the microarray. […] A table for will be generated and provided as a tab-delimited text file. The file will contain the log ratio, fold-change, log ratio p-value, etc. for only the differentially expressed transcripts within the context of the comparison. […] These criteria were applied to the comparison made in Objective 1. A table was generated, saved as tab-delimited text files, and is provided on the DVD that accompanied this report in the “Objective—1” subdirectory or the “Data_Analysis” directory. […] Cell cultures: A human skin fibroblast cell culture (or cultures) will be obtained through the Coriell Cell Repository from the National Institute on Aging Cell Repository. […] Culture media: Cells will be grown in Minimal Essential Medium supplemented with 10% fetal bovine serum, 2 mM L-glutamine, 2 mM Glutamax I.", "data": [{"smiles": "COC1=C(OC)C(=O)C(CCCCCCCCCCO)=C(C)C1=O", "note": "[Idebenone, 6-(10-hydroxydecyl)-2,3-dimethoxy-5-methyl-1,4-benzoquin-one]", "values": [{"measurement": "STOML2 Expression", "setting": "Alone", "value": 1.2}, {"measurement": "TAGLN Expression", "setting": "Alone", "value": "−1.2"}, {"measurement": "TBXA2R Expression", "setting": "Alone", "value": "−1.1"}, {"measurement": "TEP1 Expression", "setting": "Alone", "value": 1.0}, {"measurement": "TERF1 Expression", "setting": "Alone", "value": "−1.0"}, {"measurement": "TERT expression", "setting": "Alone", "value": 1.1}, {"measurement": "TFAP2A Expression", "setting": "Alone", "value": "−1.2"}, {"measurement": "TFAP2B Expression", "setting": "Alone", "value": 1.0}, {"measurement": "TFAP2C Expression", "setting": "Alone", "value": "−1.1"}, {"measurement": "TFRC Expression", "setting": "Alone", "value": 1.1}, {"measurement": "TGFA Expression", "setting": "Alone", "value": 1.0}, {"measurement": "TGFB1 Expression", "setting": "Alone", "value": 1.0}, {"measurement": "TGFBR2 Expression", "setting": "Alone", "value": "−1.3"}, {"measurement": "TGM1 Expression", "setting": "Alone", "value": "−1.1"}, {"measurement": "TH Expression", "setting": "Alone", "value": 1.6}, {"measurement": "THBS1 Expression", "setting": "Alone", "value": "−1.1"}, {"measurement": "TIMP1 Expression", "setting": "Alone", "value": "−1.4"}, {"measurement": "TIMP2 Expression", "setting": "Alone", "value": "−1.4"}, {"measurement": "TK1 Expression", "setting": "Alone", "value": 1.6}, {"measurement": "TM4SF1 Expression", "setting": "Alone", "value": "−1.1"}, {"measurement": "TNF Expression", "setting": "Alone", "value": 1.1}, {"measurement": "TNFRSF1A Expression", "setting": "Alone", "value": "−1.1"}, {"measurement": "TNFRSF1B Expression", "setting": "Alone", "value": "−1.8"}, {"measurement": "TNFRSF11B Expression", "setting": "Alone", "value": 1.0}, {"measurement": "TOP2A Expression", "setting": "Alone", "value": 1.6}, {"measurement": "TYMS Expression", "setting": "Alone", "value": 1.2}, {"measurement": "UBE2C Expression", "setting": "Alone", "value": 1.5}, {"measurement": "UBE2V1 Expression", "setting": "Alone", "value": "−1.1"}, {"measurement": "VEGFC Expression", "setting": "Alone", "value": 1.0}, {"measurement": "XRCC6BP1 Expression", "setting": "Alone", "value": 1.1}, {"measurement": "YWHAZ Expression", "setting": "Alone", "value": 1.0}, {"measurement": "AKT1 Expression", "setting": "Idebenone + UVB", "value": "−1.6"}, {"measurement": "ALOX12 Expression", "setting": "Idebenone + UVB", "value": 1.8}, {"measurement": "APOE Expression", "setting": "Idebenone + UVB", "value": "−1.2"}, {"measurement": "ARG2 Expression", "setting": "Idebenone + UVB", "value": 1.2}, {"measurement": "ATOX1 Expression", "setting": "Idebenone + UVB", "value": "−1.0"}, {"measurement": "CAMK1 Expression", "setting": "Idebenone + UVB", "value": "−1.7"}, {"measurement": "CAT Expression", "setting": "Idebenone + UVB", "value": "−1.3"}, {"measurement": "CCNA1 Expression", "setting": "Idebenone + UVB", "value": 1.0}, {"measurement": "CCS Expression", "setting": "Idebenone + UVB", "value": "−1.2"}, {"measurement": "CDKN1A Expression", "setting": "Idebenone + UVB", "value": "−1.1"}, {"measurement": "CYBA Expression", "setting": "Idebenone + UVB", "value": "−1.2"}, {"measurement": "CYGB Expression", "setting": "Idebenone + UVB", "value": "−1.4"}, {"measurement": "DDAH2 Expression", "setting": "Idebenone + UVB", "value": 1.0}, {"measurement": "DLG4 Expression", "setting": "Idebenone + UVB", "value": "−1.0"}, {"measurement": "DNCL1 Expression", "setting": "Idebenone + UVB", "value": 1.0}, {"measurement": "DND1 Expression", "setting": "Idebenone + UVB", "value": "−1.0"}, {"measurement": "DUOX1 Expression", "setting": "Idebenone + UVB", "value": 1.2}, {"measurement": "DUOX2 Expression", "setting": "Idebenone + UVB", "value": 2.0}, {"measurement": "DUSP1 Expression", "setting": "Idebenone + UVB", "value": 1.2}, {"measurement": "EGFR Expression", "setting": "Idebenone + UVB", "value": "−1.0"}, {"measurement": "EPX Expression", "setting": "Idebenone + UVB", "value": "−2.2"}, {"measurement": "FOXM1 Expression", "setting": "Idebenone + UVB", "value": "−1.5"}, {"measurement": "GCH1 Expression", "setting": "Idebenone + UVB", "value": "−1.7"}, {"measurement": "GCHFR Expression", "setting": "Idebenone + UVB", "value": 1.0}, {"measurement": "GLA Expression", "setting": "Idebenone + UVB", "value": 1.0}, {"measurement": "GLRX2 Expression", "setting": "Idebenone + UVB", "value": 1.0}, {"measurement": "GPR156 Expression", "setting": "Idebenone + UVB", "value": 1.3}, {"measurement": "GPX1 Expression", "setting": "Idebenone + UVB", "value": "−1.1"}, {"measurement": "GPX2 Expression", "setting": "Idebenone + UVB", "value": "−1.2"}, {"measurement": "GPX3 Expression", "setting": "Idebenone + UVB", "value": "−1.2"}, {"measurement": "GPX4 Expression", "setting": "Idebenone + UVB", "value": "−1.1"}, {"measurement": "GPX5 Expression", "setting": "Idebenone + UVB", "value": 1.4}, {"measurement": "GRIN2D Expression", "setting": "Idebenone + UVB", "value": 1.1}, {"measurement": "GSS Expression", "setting": "Idebenone + UVB", "value": "−1.1"}, {"measurement": "HSP90AB1 Expression", "setting": "Idebenone + UVB", "value": "−1.3"}, {"measurement": "IL8 Expression", "setting": "Idebenone + UVB", "value": 1.0}, {"measurement": "IL10 Expression", "setting": "Idebenone + UVB", "value": 1.1}, {"measurement": "INS Expression", "setting": "Idebenone + UVB", "value": 1.1}, {"measurement": "JUN Expression", "setting": "Idebenone + UVB", "value": "−1.1"}, {"measurement": "KRT1 Expression", "setting": "Idebenone + UVB", "value": 1.0}, {"measurement": "LPO Expression", "setting": "Idebenone + UVB", "value": 1.1}, {"measurement": "MBL2 Expression", "setting": "Idebenone + UVB", "value": 1.0}, {"measurement": "MPO Expression", "setting": "Idebenone + UVB", "value": 1.0}, {"measurement": "MSRA Expression", "setting": "Idebenone + UVB", "value": 1.2}, {"measurement": "MT3 Expression", "setting": "Idebenone + UVB", "value": 1.1}, {"measurement": "MTL5 Expression", "setting": "Idebenone + UVB", "value": "−1.1"}, {"measurement": "MYB Expression", "setting": "Idebenone + UVB", "value": 1.0}, {"measurement": "NCF1 Expression", "setting": "Idebenone + UVB", "value": "−1.2"}, {"measurement": "NCF2 Expression", "setting": "Idebenone + UVB", "value": 1.6}, {"measurement": "NME5 Expression", "setting": "Idebenone + UVB", "value": 1.2}, {"measurement": "NOS1 Expression", "setting": "Idebenone + UVB", "value": 1.2}, {"measurement": "NOS2A Expression", "setting": "Idebenone + UVB", "value": 1.1}, {"measurement": "NOS3 Expression", "setting": "Idebenone + UVB", "value": "−1.0"}, {"measurement": "NOSIP Expression", "setting": "Idebenone + UVB", "value": "−1.2"}, {"measurement": "NOSTRIN Expression", "setting": "Idebenone + UVB", "value": 1.0}, {"measurement": "NOX5 Expression", "setting": "Idebenone + UVB", "value": "−1.2"}, {"measurement": "NQO1 Expression", "setting": "Idebenone + UVB", "value": "−1.2"}, {"measurement": "NRF1 Expression", "setting": "Idebenone + UVB", "value": "−1.4"}, {"measurement": "NUDT1 Expression", "setting": "Idebenone + UVB", "value": "−1.1"}, {"measurement": "OXR1 Expression", "setting": "Idebenone + UVB", "value": 1.1}, {"measurement": "PGC Expression", "setting": "Idebenone + UVB", "value": 1.2}, {"measurement": "PKAR1B Expression", "setting": "Idebenone + UVB", "value": "−1.0"}, {"measurement": "PNKP Expression", "setting": "Idebenone + UVB", "value": "−1.3"}, {"measurement": "PP3CA Expression", "setting": "Idebenone + UVB", "value": 1.1}, {"measurement": "PRDX2 Expression", "setting": "Idebenone + UVB", "value": 1.0}, {"measurement": "PRDX6 Expression", "setting": "Idebenone + UVB", "value": 1.1}, {"measurement": "PREX1 Expression", "setting": "Idebenone + UVB", "value": "−1.1"}, {"measurement": "PRG3 Expression", "setting": "Idebenone + UVB", "value": "−1.0"}, {"measurement": "PRKCA Expression", "setting": "Idebenone + UVB", "value": "−1.1"}, {"measurement": "PRNP Expression", "setting": "Idebenone + UVB", "value": 1.0}, {"measurement": "RNF7 Expression", "setting": "Idebenone + UVB", "value": "−1.0"}, {"measurement": "SCARA3 Expression", "setting": "Idebenone + UVB", "value": "−1.0"}, {"measurement": "SCRT2 Expression", "setting": "Idebenone + UVB", "value": 1.3}, {"measurement": "SELS Expression", "setting": "Idebenone + UVB", "value": 1.0}, {"measurement": "SEPP1 Expression", "setting": "Idebenone + UVB", "value": 1.0}, {"measurement": "SGK2 Expression", "setting": "Idebenone + UVB", "value": "−1.2"}, {"measurement": "SIRT2 Expression", "setting": "Idebenone + UVB", "value": "−1.1"}, {"measurement": "SOD1 Expression", "setting": "Idebenone + UVB", "value": "−1.1"}, {"measurement": "SOD2 Expression", "setting": "Idebenone + UVB", "value": 1.0}, {"measurement": "SOD3 Expression", "setting": "Idebenone + UVB", "value": 1.1}, {"measurement": "SRXN1 Expression", "setting": "Idebenone + UVB", "value": "−1.1"}]}]}
